Patent publication US5981558A, “DC107 derivatives” (Kyowa Hakko Kogyo Co., Ltd., priority 1996, dated 1999)

Test system: HeLa S3 cells
Experiment: HeLa S3 Cell Growth Inhibition Test
Type: cell-based
Settings: HeLa S3; 72 hours incubation; Neutral Red; read-out: IC50, HeLa S3 cell growth inhibition
Protocol: In each well of a 96-well microtiter plate was placed 0.1 mL of HeLa S3 cells having a concentration of 8×10^3 cells/mL and prepared in an MEM culture medium containing 10% fetal bovine serum and 2 mM glutamine. After the cells were incubated overnight at 37° C. in a carbon dioxide incubator, a test compound suitably diluted with a medium was added to the wells in an amount of 0.05 mL for each well. The cells were incubated at 37° C. for 72 hours in a carbon dioxide incubator. After the culture supernatant was removed, 0.1 mL of a culture medium containing 0.02% Neutral Red was added to each well. The cells were then incubated at 37° C. for 1 hour in a carbon dioxide incubator to dye the cells. After the culture supernatant was removed, each residue was rinsed once with physiological saline and the pigment was extracted with 0.001 N hydrochloric acid/30% ethanol. The absorbance at 550 nm of each extract was measured with a microplate reader. The drug concentration required for the 50% inhibition of cell growth, which is referred to as IC50, was calculated by comparing the absorbance for untreated cells with those for cells treated with the drug in known concentrations.

| SMILES | IC50 |
| --- | --- |
| COC(=O)NCC(=O)OCSC(=O)C(C)(O)C12CC/C(C)=C/C(OC3CCCCO3)C(=O)/C=C/C=C\c3csc(n3)C(C)N(C(=O)C1)[S+]2[O-] (single isomer, unassigned) [Compound 42] | 47 nM |
| COC(=O)[C@H](CCC(=O)OCSC(=O)C(C)(O)C12CC/C(C)=C/C(OC3CCCCO3)C(=O)/C=C/C=C\c3csc(n3)C(C)N(C(=O)C1)[S+]2[O-])NC(=O)[C@@]12O[C@@H](CO)[C@@H](O)[C@@H]1OC(C)(C)O2 (single isomer, unassigned) [Compound 65] | 3.1 nM |
| COC(=O)[C@H](CCC(=O)OCSC(=O)C(C)(O)C12CC/C(C)=C/C(OC3CCCCO3)C(=O)/C=C/C=C\c3csc(n3)C(C)N(C(=O)C1)[S+]2[O-])NC(=O)[C@@]12O[C@@H](CO)[C@@H](O)[C@@H]1OC(C)(C)O2 (single isomer, unassigned) [Compound 66] | 48 nM |

Same assay, conditions: Homo sapiens, HeLa S3, 72 h, HeLa S3; 72 hours incubation; Neutral Red; read-out: IC50, HeLa S3 cell growth inhibition

| SMILES | IC50 |
| --- | --- |
| COC(=O)CCC(=O)OCSC(=O)C(C)(O)C12CCC(C)=CC(O)C(=O)C=CC=Cc3csc(n3)C(C)N(C(=O)C1)[S+]2[O-] (centres unmarked) [Compound 1] | 7 nM |
| COc1ccc(COCC(=O)OCSC(=O)C(C)(O)C23CCC(C)=CC(O)C(=O)C=CC=Cc4csc(n4)C(C)N(C(=O)C2)[S+]3[O-])cc1 (centres unmarked) [Compound 13] | 11 nM |
| CC1=CC(O)C(=O)C=CC=Cc2csc(n2)C(C)N2C(=O)CC(C(C)(O)C(=O)SCOC(=O)CNC(=O)[C@@]34O[C@H]5COC(C)(C)O[C@H]5[C@@H]3OC(C)(C)O4)(CC1)[S+]2[O-] (some centres unmarked) [Compound 19] | 57 nM |
| CC1=CC(O)C(=O)C=CC=Cc2csc(n2)C(C)N2C(=O)CC(C(C)(O)C(=O)SCOC(=O)CCNC(=O)[C@@]34O[C@H]5COC(C)(C)O[C@H]5[C@@H]3OC(C)(C)O4)(CC1)[S+]2[O-] (some centres unmarked) [Compound 20] | 110 nM |
| COC(=O)[C@H](CCC(=O)OCSC(=O)C(C)(O)C12CCC(C)=CC(O)C(=O)C=CC=Cc3csc(n3)C(C)N(C(=O)C1)[S+]2[O-])NC(=O)c1ccc(OC(C)=O)cc1 (some centres unmarked) [Compound 26] | 68 nM |
| CC(=O)Oc1ccc(C(=O)OCSC(=O)C(C)(O)C23CCC(C)=CC(O)C(=O)C=CC=Cc4csc(n4)C(C)N(C(=O)C2)[S+]3[O-])cc1 (centres unmarked) [Compound 30] | 15 nM |
| CC(=O)Oc1ccc(CCC(=O)OCSC(=O)C(C)(O)C23CCC(C)=CC(O)C(=O)C=CC=Cc4csc(n4)C(C)N(C(=O)C2)[S+]3[O-])cc1 (centres unmarked) [Compound 32] | 1.3 nM |
| CC(=O)Oc1ccc(CCCC(=O)OCSC(=O)C(C)(O)C23CCC(C)=CC(O)C(=O)C=CC=Cc4csc(n4)C(C)N(C(=O)C2)[S+]3[O-])cc1 (centres unmarked) [Compound 33] | 11 nM |
| COC(=O)Nc1cccc(C(=O)OCSC(=O)C(C)(O)C23CCC(C)=CC(O)C(=O)C=CC=Cc4csc(n4)C(C)N(C(=O)C2)[S+]3[O-])c1 (centres unmarked) [Compound 34] | 55 nM |
| COC1(OC2/C=C(\C)CCC3(C(C)(O)C(=O)SCOC(=O)CNC(=O)OC(C)(C)C)CC(=O)N(C(C)c4nc(cs4)/C=C\C=C\C2=O)[S+]3[O-])CCOCC1 (centres unmarked) [Compound 39] | 2.2 nM |
| COC1(OC2/C=C(\C)CCC3(C(C)(O)C(=O)SCOC(=O)c4cccc(OC(C)=O)c4)CC(=O)N(C(C)c4nc(cs4)/C=C\C=C\C2=O)[S+]3[O-])CCOCC1 (centres unmarked) [Compound 55] | 11 nM |

Same assay, conditions: Homo sapiens, HeLa S3, 72 h, footnote *: Value after 72 hours of drug treatment; read-out: IC50, HeLa S3 cell growth inhibition

| SMILES | IC50 |
| --- | --- |
| CC1=CC(O)C(=O)C=CC=Cc2csc(n2)C(C)N2C(=O)CC(C(C)(O)C(=O)SCOC(=O)c3ccc(C(=O)O)cc3)(CC1)[S+]2[O-] (centres unmarked) [Compound 9] | 150 nM |

Same assay, conditions: Homo sapiens, HeLa S3, 72 h, read-out: IC50, HeLa S3 cell growth inhibition, HeLa S3; 72 hours incubation; Neutral Red

| SMILES | IC50 |
| --- | --- |
| COC(=O)CCCCC(=O)OCSC(=O)C(C)(O)C12CCC(C)=CC(O)C(=O)C=CC=Cc3csc(n3)C(C)N(C(=O)C1)[S+]2[O-] (centres unmarked) [Compound 2] | 7.5 nM |
| CC1=CC(O)C(=O)C=CC=Cc2csc(n2)C(C)N2C(=O)CC(C(C)(O)C(=O)SCOC(=O)C(C)(C)NC(=O)OC(C)(C)C)(CC1)[S+]2[O-] (centres unmarked) [Compound 5] | 55 nM |
| CC1=CC(O)C(=O)C=CC=Cc2csc(n2)C(C)N2C(=O)CC(C(C)(O)C(=O)SCOC(=O)c3ccccc3)(CC1)[S+]2[O-] (centres unmarked) [Compound 6] | 18 nM |
| CC1=CC(O)C(=O)C=CC=Cc2csc(n2)C(C)N2C(=O)CC(C(C)(O)C(=O)SCOC(=O)CCNC(=O)[C@H]3O[C@@H]4OC(C)(C)O[C@@H]4[C@H]4OC(C)(C)O[C@H]43)(CC1)[S+]2[O-] (some centres unmarked) [Compound 21] | 380 nM |
| COC(=O)N[C@@H](CCC(=O)OCSC(=O)C(C)(O)C12CCC(C)=CC(O)C(=O)C=CC=Cc3csc(n3)C(C)N(C(=O)C1)[S+]2[O-])C(=O)OC (some centres unmarked) [Compound 23] | 58 nM |
| CC1=CC(O)C(=O)C=CC=Cc2csc(n2)C(C)N2C(=O)CC(C(C)(O)C(=O)SCOC(=O)CCCN3C(=O)C=CC3=O)(CC1)[S+]2[O-] (centres unmarked) [Compound 28] | 750 nM |
| CC(=O)Oc1cccc(C(=O)OCSC(=O)C(C)(O)C23CCC(C)=CC(O)C(=O)C=CC=Cc4csc(n4)C(C)N(C(=O)C2)[S+]3[O-])c1 (centres unmarked) [Compound 31] | 6.2 nM |
| COCCOCCOCC(=O)OCOC1/C=C(\C)CCC2(C(C)(O)C(=O)SCOC(=O)COCCOCCOC)CC(=O)N(C(C)c3nc(cs3)/C=C\C=C\C1=O)[S+]2[O-] (centres unmarked) [Compound 36] | 20 nM |
| C/C1=C\C(OC2CCCCO2)C(=O)/C=C/C=C\c2csc(n2)C(C)N2C(=O)CC(C(C)(O)C(=O)SCOC(=O)CNC(=O)OC(C)(C)C)(CC1)[S+]2[O-] (centres unmarked) [Compound 38] | 3.8 nM |
| C/C1=C\C(OC2CCCCO2)C(=O)/C=C/C=C\c2csc(n2)C(C)N2C(=O)CC(C(C)(O)C(=O)SCOC(=O)CNC(=O)[C@@]34O[C@H]5COC(C)(C)O[C@H]5[C@@H]3OC(C)(C)O4)(CC1)[S+]2[O-] (some centres unmarked) [Compound 43] | 24 nM |
| C/C1=C\C(OC2CCCCO2)C(=O)/C=C/C=C\c2csc(n2)C(C)N2C(=O)CC(C(C)(O)C(=O)SCOC(=O)CCNC(=O)[C@@]34O[C@H]5COC(C)(C)O[C@H]5[C@@H]3OC(C)(C)O4)(CC1)[S+]2[O-] (some centres unmarked) [Compound 44] | 8.6 nM |
| COC(=O)[C@H](CCC(=O)OCSC(=O)C(C)(O)C12CC/C(C)=C/C(OC3CCCCO3)C(=O)/C=C/C=C\c3csc(n3)C(C)N(C(=O)C1)[S+]2[O-])NC(=O)[C@@]12O[C@H]3COC(C)(C)O[C@H]3[C@@H]1OC(C)(C)O2 (some centres unmarked) [Compound 49] | 30 nM |
| CC(=O)Oc1ccc(CCCC(=O)OCSC(=O)C(C)(O)C23CC/C(C)=C/C(OC4CCCCO4)C(=O)/C=C/C=C\c4csc(n4)C(C)N(C(=O)C2)[S+]3[O-])cc1 (centres unmarked) [Compound 56] | 0.52 nM |
| COC(=O)Nc1cccc(C(=O)OCSC(=O)C(C)(O)C23CC/C(C)=C/C(OC4CCCCO4)C(=O)/C=C/C=C\c4csc(n4)C(C)N(C(=O)C2)[S+]3[O-])c1 (centres unmarked) [Compound 57] | 36 nM |
| COC(=O)Nc1cccc(C(=O)OCSC(=O)C(C)(O)C23CC/C(C)=C/C(OC4(OC)CCOCC4)C(=O)/C=C/C=C\c4csc(n4)C(C)N(C(=O)C2)[S+]3[O-])c1 (centres unmarked) [Compound 58] | 38 nM |
| C/C1=C\C(O)C(=O)/C=C/C=C\c2csc(n2)C(C)N2C(=O)CC(C(C)(O)C(=O)SCOC(=O)CCNC(=O)[C@@]34O[C@@H](CO)[C@@H](O)[C@@H]3OC(C)(C)O4)(CC1)[S+]2[O-] (some centres unmarked) [Compound 59] | 1300 nM |
| COC(=O)[C@H](CCC(=O)OCSC(=O)C(C)(O)C12CC/C(C)=C/C(O)C(=O)/C=C/C=C\c3csc(n3)C(C)N(C(=O)C1)[S+]2[O-])NC(=O)C(C)(CO)CO (some centres unmarked) [Compound 61] | 720 nM |
| C/C1=C\C(O)C(=O)/C=C/C=C\c2csc(n2)C(C)N2C(=O)CC(C(C)(O)C(=O)SCOC(=O)c3ccc(O)cc3)(CC1)[S+]2[O-] (centres unmarked) [Compound 67] | 50 nM |
| C/C1=C\C(OC2CCCCO2)C(=O)/C=C/C=C\c2csc(n2)C(C)N2C(=O)CC(C(C)(O)C(=O)SCOC(=O)c3ccc(O)cc3)(CC1)[S+]2[O-] (centres unmarked) [Compound 68] | 35 nM |
| C/C1=C\C(OC2CCCCO2)C(=O)/C=C/C=C\c2csc(n2)C(C)N2C(=O)CC(C(C)(O)C(=O)SCOC(=O)c3cccc(O)c3)(CC1)[S+]2[O-] (centres unmarked) [Compound 69] | 76 nM |
| COC(=O)[C@H](CCC(=O)OCSC(=O)C(C)(O)C12CC/C(C)=C/C(OC3CCCCO3)C(=O)/C=C/C=C\c3csc(n3)C(C)N(C(=O)C1)[S+]2[O-])NC(=O)c1ccc(O)cc1 (some centres unmarked) [Compound 71] | 1.2 nM |
| C/C1=C\C(OC2CCCCO2)C(=O)/C=C/C=C\c2csc(n2)C(C)N2C(=O)CC(C(C)(O)C(=O)SCc3oc(=O)oc3CCl)(CC1)[S+]2[O-] (centres unmarked) [Compound 74] | 19 nM |

Same assay, conditions: Homo sapiens; HeLa S3; 72 hours incubation; Neutral Red; read-out: IC50, HeLa S3 cell growth inhibition

| SMILES | IC50 |
| --- | --- |
| C/C1=C\C(OC2CCCCO2)C(=O)/C=C/C=C\c2csc(n2)C(C)N2C(=O)CC(C(C)(O)C(=O)SCOC(=O)c3ccc(OP(=O)(O)O)cc3)(CC1)[S+]2[O-] (centres unmarked) [Compound 72] | 650 nM |
| C/C1=C\C(OC2CCCCO2)C(=O)/C=C/C=C\c2csc(n2)C(C)N2C(=O)CC(C(C)(O)C(=O)SCOC(=O)c3cccc(OP(=O)(O)O)c3)(CC1)[S+]2[O-] (centres unmarked) [Compound 73] | 1900 nM |

Same assay, conditions: read-out: IC50, HeLa S3 cell growth inhibition; HeLa S3; 72 hours incubation; Neutral Red

| SMILES | IC50 |
| --- | --- |
| C/C1=C\C(OC2CCCCO2)C(=O)/C=C/C=C\c2csc(n2)C(C)N2C(=O)CC(C(C)(O)C(=O)SCOC(=O)CNC(=O)[C@@]34O[C@@H](CO)[C@@H](O)[C@@H]3OC(C)(C)O4)(CC1)[S+]2[O-] (single isomer, unassigned) [Compound 62] | 71 nM |
| C/C1=C\C(OC2CCCCO2)C(=O)/C=C/C=C\c2csc(n2)C(C)N2C(=O)CC(C(C)(O)C(=O)SCOC(=O)CNC(=O)[C@@]34O[C@@H](CO)[C@@H](O)[C@@H]3OC(C)(C)O4)(CC1)[S+]2[O-] (single isomer, unassigned) [Compound 63] | 270 nM |
